Test results reported in US12517131B2, “Methods for labeling eukaryotic cells from a multicellular organism as well as for treating and/or diagnosing a cancer using modified monosaccharide compounds” (DIAMIDEX, priority 2019, dated 2026).
Several values for one entry are separate records, joined by “and”; a condition that tells them apart may be missing. Identical values can stand only once.

Assays:
[1] = tested on: human urinary bladder carcinoma (T24); experiment: Labeling of bladder cells with Ara-N3 probe, copper-free click, fluorescence microscopy; format: cell-based; conditions: 24 h, Ara-N3 10 mM
Procedure: (§1) The human uroepithelial cells (SV-HUC-1) and the human urinary bladder carcinoma (T24) were purchased from ATCC (Manassas, Van USA). These cell lines were grown in RPMI 1640 with Glutamine 1 medium (Lonza Biowhttaker) supplemented by 10% fetal bovine serum (FBS) (VWR international S.A.S). The culture medium was changed every two days. The passaging of cells was performed using Tryp-LE express 1× (Gibco). The cell viability was estimated using trypan blue exclusion tests.
(§2) SV-HUC-1 and T24 cells were seeded in 24-well plates, at density of 5*10^4 cells/well. Then, cells were incubated at 37° C., 5% in CO2 during 24 hours. Thereafter, the culture medium of each well was discarded, and attached cells were washed twice with Phosphate Buffer Salin (PBS) (Lonza Biowhittaker), before to be exposed to Ara-N3 probe (10 mM). Probe was added to culture medium with different FBS concentrations (3% and 10%). Then, cells were incubated at 37° C., 5% in CO2 for 24 hours again. The control cells were cultured using culture medium supplemented with 5% or 10% FBS, without addition of Ara-N3.
(§3) The fluorescence Assimilation of Ara-N3 probes was visualized by copper-free click chemistry using sulfo-DBCO-biotin (1 mM), followed by labeling with a mouse anti-biotin Alexa Fluor 488 antibody conjugate (0.62 mg/ml stock, Jackson ImmunoResearch, dilution 1/10). The click reaction was carry-out as following: At 24 h incubation times, the culture mediums were removed, and attached cells were washed twice with PBS. Cells were detached with Tryp-LE, washed twice with PBS, and centrifuged at 13000 g for 2 min. The cellular pellets were resuspended with 10 μL of sulfo-DBCO-biotin and incubated 30 min in the dark, and at 37 C°. Then, cells were washed twice with PBS, centrifuged, and cellular pellets were resuspended with 10 μL of a mouse anti-biotin antibody solution, before to be incubated at room temperature in dark. Thereafter, cells were washed twice with PBS and small cellular suspension spots (5 μL) were put in Polysine® adhesion slides (VWR international S.A.S), in the dark room, until dry (20 min). The spots were fixed with 4% paraformaldehyde during 20 min, in dark and room temperature. Slides were then washed twice with PBS, before recovering with square cover glasses (VWR international S.A.S) using glycerol Mounting Medium (Dako) and stored at 4° C. in dark room.
(§4) The fluorescence acquisition was recorded using Olympus Microscopy IX83 (Olympus Life Science) equipped with a 60×/1.3 […]/1.4 SRI (silicone refractive index) objective, and Hamamatsu oreca flash 4 LT camera with 109 nm/pixel calibrated pixel size. The excitation light was emitted by X-CITE 120LED using the AT180/30X excited filter and signal was monitored using AT535/40m emission filter. Green light exposition time was 600 ms and white light exposition time was determined by DIC methods at […]. The acquisition area size analyzed by the Celisens dimension V1.16 software was different depending on the cell number containing in the spot.
(§5) The images were processed using count and measure unit of the Cellsens dimension V1.16 software. The background noise was deleted as follows: ROI were first defined on the background of the image and the average pixel intensity was calculated. The value thus obtained was subtracted from all pixels of the image. The fluorescence intensity of each cell was determined from a threshold set at a value of 3030. All pixels that have intensity below 3030 were not counted.

[2] = tested on: human uroepithelial cells (SV-HUC-1); experiment: as above; format: cell-based; conditions: 24 h, Ara-N3 10 mM
Procedure: as §1, §2, §3, §4, §5

## [N-]=[N+]=NC[C@H]1OC(O)[C@@H](O)[C@@H]1O (stereo partly drawn) [Ara-N3, 5-azido-5-deoxy-D-arabinofuranose]
[1]; Intensity/μm^2 0-50000, FBS 3%, n = 226
  labelled cells %, T24 %: 2.21%
[1]; Intensity/μm^2 0-50,000, FBS 10%, n = 282
  labelled cells %, T24 %: 1.42%
[1]; Intensity/μm^2 50,000-100,000, FBS 3%, n = 226
  labelled cells %, T24 %: 2.65%
[1]; Intensity/μm^2 50,000-100,000, FBS 10%, n = 282
  labelled cells %, T24 %: 2.13%
[1]; Intensity/μm^2 100,000-150,000, FBS 3%, n = 226
  labelled cells %, T24 %: 2.65%
[1]; Intensity/μm^2 100,000-150,000, FBS 10%, n = 282
  labelled cells %, T24 %: 2.48%
[1]; Intensity/μm^2 150,000-200,000, FBS 3%, n = 226
  labelled cells %, T24 %: 5.75%
[1]; Intensity/μm^2 150,000-200,000, FBS 10%, n = 282
  labelled cells %, T24 %: 1.42%
[1]; Intensity/μm^2 200,000-250,000, FBS 3%, n = 226
  labelled cells %, T24 %: 3.98%
[1]; Intensity/μm^2 200,000-250,000, FBS 10%, n = 282
  labelled cells %, T24 %: 2.13%
[1]; Intensity/μm^2 250,000-300,000, FBS 3%, n = 226
  labelled cells %, T24 %: 3.54%
[1]; Intensity/μm^2 250,000-300,000, FBS 10%, n = 282
  labelled cells %, T24 %: 1.42%
[1]; Intensity/μm^2 300,000-350,000, FBS 3%, n = 226
  labelled cells %, T24 %: 2.21%
[1]; Intensity/μm^2 300,000-350,000, FBS 10%, n = 282
  labelled cells %, T24 %: 1.77%
[1]; Intensity/μm^2 350,000-400,000, FBS 3%, n = 226
  labelled cells %, T24 %: 3.98%
[1]; Intensity/μm^2 350,000-400,000, FBS 10%, n = 282
  labelled cells %, T24 %: 2.48%
[1]; Intensity/μm^2 400,000-450,000, FBS 3%, n = 226
  labelled cells %, T24 %: 2.65%
[1]; Intensity/μm^2 400,000-450,000, FBS 10%, n = 282
  labelled cells %, T24 %: 3.19%
[1]; Intensity/μm^2 450,000-500,000, FBS 3%, n = 226
  labelled cells %, T24 %: 3.54%
[1]; Intensity/μm^2 450,000-500,000, FBS 10%, n = 282
  labelled cells %, T24 %: 2.13%
[1]; Intensity/μm^2 >500,000, FBS 3%, n = 226
  labelled cells %, T24 %: 66.81%
[1]; Intensity/μm^2 >500,000, FBS 10%, n = 282
  labelled cells %, T24 %: 79.42% and 79.43%
[2]; Intensity/μm^2 0-50000, FBS 3%, n = 239
  labelled cells %, SV-HUC1 %: 62.34%
[2]; Intensity/μm^2 0-50,000, FBS 10%, n = 301
  labelled cells %, SV-HUC1 %: 73.45%
[2]; Intensity/μm^2 50,000-100,000, FBS 3%, n = 239
  labelled cells %, SV-HUC1 %: 2.51%
[2]; Intensity/μm^2 50,000-100,000, FBS 10%, n = 301
  labelled cells %, SV-HUC1 %: 4.32%
[2]; Intensity/μm^2 100,000-150,000, FBS 3%, n = 239
  labelled cells %, SV-HUC1 %: 2.09%
[2]; Intensity/μm^2 100,000-150,000, FBS 10%, n = 301
  labelled cells %, SV-HUC1 %: 1.66%
[2]; Intensity/μm^2 150,000-200,000, FBS 3%, n = 239
  labelled cells %, SV-HUC1 %: 1.26%
[2]; Intensity/μm^2 150,000-200,000, FBS 10%, n = 301
  labelled cells %, SV-HUC1 %: 1.33%
[2]; Intensity/μm^2 200,000-250,000, FBS 3%, n = 239
  labelled cells %, SV-HUC1 %: 1.67%
[2]; Intensity/μm^2 200,000-250,000, FBS 10%, n = 301
  labelled cells %, SV-HUC1 %: 0.66%
[2]; Intensity/μm^2 250,000-300,000, FBS 3%, n = 239
  labelled cells %, SV-HUC1 %: 3.77%
[2]; Intensity/μm^2 250,000-300,000, FBS 10%, n = 301
  labelled cells %, SV-HUC1 %: 0.66%
[2]; Intensity/μm^2 300,000-350,000, FBS 3%, n = 239
  labelled cells %, SV-HUC1 %: 0.42%
[2]; Intensity/μm^2 300,000-350,000, FBS 10%, n = 301
  labelled cells %, SV-HUC1 %: 0.33%
[2]; Intensity/μm^2 350,000-400,000, FBS 3%, n = 239
  labelled cells %, SV-HUC1 %: 0.42%
[2]; Intensity/μm^2 350,000-400,000, FBS 10%, n = 301
  labelled cells %, SV-HUC1 %: 0.66%
[2]; Intensity/μm^2 400,000-450,000, FBS 3%, n = 239
  labelled cells %, SV-HUC1 %: 0.84%
[2]; Intensity/μm^2 400,000-450,000, FBS 10%, n = 301
  labelled cells %, SV-HUC1 %: 0.66%
[2]; Intensity/μm^2 450,000-500,000, FBS 3%, n = 239
  labelled cells %, SV-HUC1 %: 2.93%
[2]; Intensity/μm^2 450,000-500,000, FBS 10%, n = 301
  labelled cells %, SV-HUC1 %: 1.33%
[2]; Intensity/μm^2 >500,000, FBS 3%, n = 239
  labelled cells %, SV-HUC1 %: 21.76%
[2]; Intensity/μm^2 >500,000, FBS 10%, n = 301
  labelled cells %, SV-HUC1 %: 14.62%
